Measurements taken from ChEMBL document CHEMBL5136972, “Targeting SARS-CoV-2 Proteases and Polymerase for COVID-19 Treatment: State of the Art and Future Opportunities” (J Med Chem, 2022).

Columns and labels:
[1] = Half life in mouse at 2 mg/kg, IM; assay type: ADME, organism-based; settings: in vivo
SARS-CoV-2 [2] = assay: Antiviral activity against SARS CoV-2 assessed as inhibition of virus-induced cytopathic effect by neutral red uptake assay; assay type: functional, organism-based; settings: Severe acute respiratory syndrome coronavirus 2
[3] = Half life in Sprague-Dawley […] measured up to 24 hrs; assay type: ADME, organism-based
[4] = Bioavailability in CD-1 mouse at 5 mg/kg, iv measured after up to 24 hrs by LC-MS/MS analysis; assay type: ADME, organism-based; settings: in vivo
[5] = Half life in CD-1 mouse at 5 mg/kg, iv measured after up to 24 hrs by LC-MS/MS analysis; assay type: ADME, organism-based; settings: in vivo
[6] = Cytotoxicity against African green monkey Vero E6 cells by CCK-8 assay; assay type: toxicity, cell-based, Vero C1008; settings: chlorocebus sabaeus
SARS-CoV-2 [7] = assay: Antiviral activity against SARS CoV-2 infected in African green monkey Vero cells assessed as inhibition of plaque formation by viral plaque assay; assay type: functional, organism-based; settings: Severe acute respiratory syndrome coronavirus 2, Vero
[8] = Cmax in CD-1 mouse at 5 mg/kg, iv measured after up to 24 hrs by LC-MS/MS analysis; assay type: ADME, organism-based; set-up: dose 5 mg/kg, time < 24 hrs, route iv; settings: in vivo
[9] = Clearance in CD-1 mouse at 5 mg/kg, iv measured after up to 24 hrs by LC-MS/MS analysis; assay type: ADME, organism-based; settings: in vivo
[10] = Half life in Beagle dog at 5 mg/kg, iv measured after up to 24 hrs by LC-MS/MS analysis; assay type: ADME, organism-based, Canis lupus familiaris; settings: in vivo
[11] = AUClast in Sprague-Dawley rat at 10 mg/kg, iv measured after up to 24 hrs by LC-MS/MS analysis; assay type: ADME, organism-based; set-up: time < 24 hrs, dose 10 mg/kg, route iv; settings: in vivo
[12] = Half life in Sprague-Dawley rat at 10 mg/kg, iv measured after up to 24 hrs by LC-MS/MS analysis; assay type: ADME, organism-based; settings: in vivo
[13] = Clearance in Beagle dog at 5 mg/kg, iv measured after up to 24 hrs by LC-MS/MS analysis; assay type: ADME, organism-based, Canis lupus familiaris; settings: in vivo
[14] = Clearance in Sprague-Dawley rat at 10 mg/kg, iv measured after up to 24 hrs by LC-MS/MS analysis; assay type: ADME, organism-based; settings: in vivo
[15] = AUClast in Beagle dog at 5 mg/kg, iv measured after up to 24 hrs by LC-MS/MS analysis; assay type: ADME, organism-based, Canis lupus familiaris; set-up: time < 24 hrs, dose 5 mg/kg, route iv; settings: in vivo
[16] = molecular target: T1, Replicase polyprotein 1ab (Severe acute respiratory syndrome coronavirus 2, UniProt P0DTD1); assay: Inhibition of N-terminal recombinant SARS CoV 2 3CL protease expressed in Escherichia coli BL21-DE3 cells using MCA-AVLQSGFR-Lys(Dnp)-Lys-NH2 as substrate by FRET assay
[17] = molecular target: T1, Replicase polyprotein 1ab; assay: Inhibition of recombinant SARS CoV-2 PL protease incubated for 60 mins by fluorescence based analysis
[18] = molecular target: T1, Replicase polyprotein 1ab; assay: Inhibition of SARS CoV-2 PL protease
[19] = Cytotoxicity against African green monkey Vero E6 cells incubated for 3 hrs by CCK-8 assay; assay type: toxicity, cell-based, Vero C1008; settings: chlorocebus sabaeus
[20] = Inhibition of FIPV 3CL protease using dabcyl-KTSAVLQ/SGFRKME-edans as substrate incubated for 30 mins followed by substrate addition measured after 30 mins by FRET assay; set-up: species or system Feline infectious peritonitis virus
[21] = Inhibition of TGEV 3CL protease using Dabcyl-KTSAVLQ/SGFRKME-Edans as substrate incubated for 30 mins followed by substrate addition measured after 30 mins by FRET assay; set-up: species or system Transmissible gastroenteritis virus
[22] = Inhibition of MERS 3CL protease using Dabcyl-KTSAVLQ/SGFRKME-Edans as substrate incubated for 30 mins followed by substrate addition measured after 30 mins by FRET assay; set-up: species or system Middle East respiratory syndrome-related coronavirus
[23] = Half life in CD-1 mouse at 3 mg/kg, sc measured after up to 24 hrs by HPLC-MS/MS analysis; assay type: ADME, organism-based; settings: in vivo
[24] = Cmax in CD-1 mouse at 3 mg/kg, sc measured after up to 24 hrs by HPLC-MS/MS analysis; assay type: ADME, organism-based; set-up: time < 24 hrs, dose 3 mg/kg, route sc; settings: in vivo
[25] = Inhibition of MERS CoV 3CL protease expressed in Escherichia coli BL21-Gold DE3 cells by FRET assay; set-up: species or system Middle East respiratory syndrome-related coronavirus

## Nc1ncnc2c([C@@H]3N[C@H](CO)[C@@H](O)[C@H]3O)c[nH]c12
[1]
  half-life: < 5 min
SARS-CoV-2 [2]
  EC50: 57.7 µM
[3]
  half-life: 372 min

## O=C[C@H](C[C@@H]1CCNC1=O)NC(=O)[C@H](CC1CC1)NC(=O)c1cc2ccccc2[nH]1
[4]
  bioavailability: > 85%
[5]
  half-life: 264 min
[6]
  CC50: > 100 µM
SARS-CoV-2 [7]
  EC50: 520 nM
[8]
  Cmax: > 2360 ng/mL
[9]
  clearance: 17 mL/min/kg
[10]
  half-life: 330 min
[11]
  AUC(0-t) at 24 h: 41500 ng·h/mL
[12]
  half-life: 456 min
[13]
  clearance: 5.8 mL/min/kg
[14]
  clearance: 4.01 mL/min/kg
[15]
  AUC(0-t) at 24 h: 14900 ng·h/mL
[16]
  IC50: 53 nM

## O=C(Nc1ccccc1O)c1ccccc1[Se][Se]c1ccccc1C(=O)Nc1ccccc1O
[17]
  IC50: 34 µM

## CC(=O)N[C@@H](CCc1ccc(O)cc1)C(=O)N[C@@H](CN)C(=O)NCC(=O)NC/C=C/C(=O)O
[18]
  IC50: 10 µM

## O=c1cc(-c2ccccc2)oc2cc(O)c(O)c(O)c12 [BAICALEIN]
[19]
  CC50 at 3 h: > 200 µM

## CC(C)C[C@H](NC(=O)OCc1ccccc1)C(=O)N[C@@H](C[C@@H]1CCNC1=O)C(O)S(=O)(=O)O (stereo partly specified)
[20]
  IC50: 720 nM
[6]
  CC50: > 100 µM
[21]
  IC50: 820 nM
[22]
  IC50: 1560 nM

## CC(C)(C)OC(=O)Nc1cccn([C@@H](CC2CC2)C(=O)N[C@@H](C[C@@H]2CCNC2=O)C(=O)C(=O)NCc2ccccc2)c1=O
[23]
  half-life: < 120 min
[24]
  Cmax: 126 ng/mL
[25]
  IC50: 580 nM
